Measured values as given in patent US10052310B2, “Separase inhibitors and uses thereof” (Baylor College of Medicine, priority 2013, dated 2018).

Molecular target: T1, Separase (Homo sapiens, UniProt Q14674)
T1 construct: made in house; host or cells: 293T cells; released from IgG-Agarose by TEV protease
Experiment: Fluorogenic Separase activity assay using (Rad21)2-Rh110 as substrate
Format: biochemical
Conditions: DMSO final concentration 2% to 38%
Procedure: The substrate used in this Example is (Rad21)2-Rh110, which has two Rad21 peptide molecules (Asp-Arg-Glu-Ile-Nle-Arg) conjugated to one molecule of Rhodamine 110 (Rh110) (CPC Scientific, Sunnyvale Calif.). The assay was set up using 384-well low volume black polystyrene plates (Corning, N.Y.). Fifteen micro liter of activated Separase (˜5 ng) was mixed with 5 μl of test compound. The cleavage buffer (CB) used to dilute reagents was (30 mM Hepes-KOH pH7.7, 50 mM NaCl, 25 mM NaF, 25 mM KCl, 5 mM MgCl2, 1.5 mM ATP, and 1 mM EGTA). The mixture was incubated at room temperature for 1 h, and then 5 μl of 0.2 mM substrate (Rad21)2-Rh110 was added. The positive control contained Separase, substrate and CB without the test compound. The negative control contained substrate and CB only. After the reaction mixture was incubated at 37° C. for 3 h, the relative fluorescence intensity was measured (without stopping the enzymatic activity) at λex=390 nm/λem=450 nm for […] (AMC) released from Rad21-MCA or λex=490 nm/λem=528 nm for Rh110 released from (Rad21)2-Rh110 using a Synergy™ 4 Multi-Mode Microplate Reader (BioTek Instruments Inc., Winooski, Vt.).
Different amounts of Sepin-1 were mixed with activated Separase for 30 min before substrate (Rad21)2-Rh110 was added. After 3 h incubation at 37° C., the fluorescence intensity of Rh110 was determined. IC50 was calculated using either KaleidaGraph program (Synerge software, Reading, Pa.) or four parameter logistic equation (4-parameter dose-response curve fit): Inhibition of Activity (%)=min+(max−min)/{1+(log [M]/IC50)}^Hill Slop, where “min” and “max” represent minimal and maximal activity inhibition, respectively. Hill Slop is the slope of the curve at its midpoint. To identify the mode of Sepin-1 interacting with Separase, different amounts of both Sepin-1 and (Rad21)2-Rh110 were used in the Separase activity assay.

T1 sequence (Q14674 whole entry): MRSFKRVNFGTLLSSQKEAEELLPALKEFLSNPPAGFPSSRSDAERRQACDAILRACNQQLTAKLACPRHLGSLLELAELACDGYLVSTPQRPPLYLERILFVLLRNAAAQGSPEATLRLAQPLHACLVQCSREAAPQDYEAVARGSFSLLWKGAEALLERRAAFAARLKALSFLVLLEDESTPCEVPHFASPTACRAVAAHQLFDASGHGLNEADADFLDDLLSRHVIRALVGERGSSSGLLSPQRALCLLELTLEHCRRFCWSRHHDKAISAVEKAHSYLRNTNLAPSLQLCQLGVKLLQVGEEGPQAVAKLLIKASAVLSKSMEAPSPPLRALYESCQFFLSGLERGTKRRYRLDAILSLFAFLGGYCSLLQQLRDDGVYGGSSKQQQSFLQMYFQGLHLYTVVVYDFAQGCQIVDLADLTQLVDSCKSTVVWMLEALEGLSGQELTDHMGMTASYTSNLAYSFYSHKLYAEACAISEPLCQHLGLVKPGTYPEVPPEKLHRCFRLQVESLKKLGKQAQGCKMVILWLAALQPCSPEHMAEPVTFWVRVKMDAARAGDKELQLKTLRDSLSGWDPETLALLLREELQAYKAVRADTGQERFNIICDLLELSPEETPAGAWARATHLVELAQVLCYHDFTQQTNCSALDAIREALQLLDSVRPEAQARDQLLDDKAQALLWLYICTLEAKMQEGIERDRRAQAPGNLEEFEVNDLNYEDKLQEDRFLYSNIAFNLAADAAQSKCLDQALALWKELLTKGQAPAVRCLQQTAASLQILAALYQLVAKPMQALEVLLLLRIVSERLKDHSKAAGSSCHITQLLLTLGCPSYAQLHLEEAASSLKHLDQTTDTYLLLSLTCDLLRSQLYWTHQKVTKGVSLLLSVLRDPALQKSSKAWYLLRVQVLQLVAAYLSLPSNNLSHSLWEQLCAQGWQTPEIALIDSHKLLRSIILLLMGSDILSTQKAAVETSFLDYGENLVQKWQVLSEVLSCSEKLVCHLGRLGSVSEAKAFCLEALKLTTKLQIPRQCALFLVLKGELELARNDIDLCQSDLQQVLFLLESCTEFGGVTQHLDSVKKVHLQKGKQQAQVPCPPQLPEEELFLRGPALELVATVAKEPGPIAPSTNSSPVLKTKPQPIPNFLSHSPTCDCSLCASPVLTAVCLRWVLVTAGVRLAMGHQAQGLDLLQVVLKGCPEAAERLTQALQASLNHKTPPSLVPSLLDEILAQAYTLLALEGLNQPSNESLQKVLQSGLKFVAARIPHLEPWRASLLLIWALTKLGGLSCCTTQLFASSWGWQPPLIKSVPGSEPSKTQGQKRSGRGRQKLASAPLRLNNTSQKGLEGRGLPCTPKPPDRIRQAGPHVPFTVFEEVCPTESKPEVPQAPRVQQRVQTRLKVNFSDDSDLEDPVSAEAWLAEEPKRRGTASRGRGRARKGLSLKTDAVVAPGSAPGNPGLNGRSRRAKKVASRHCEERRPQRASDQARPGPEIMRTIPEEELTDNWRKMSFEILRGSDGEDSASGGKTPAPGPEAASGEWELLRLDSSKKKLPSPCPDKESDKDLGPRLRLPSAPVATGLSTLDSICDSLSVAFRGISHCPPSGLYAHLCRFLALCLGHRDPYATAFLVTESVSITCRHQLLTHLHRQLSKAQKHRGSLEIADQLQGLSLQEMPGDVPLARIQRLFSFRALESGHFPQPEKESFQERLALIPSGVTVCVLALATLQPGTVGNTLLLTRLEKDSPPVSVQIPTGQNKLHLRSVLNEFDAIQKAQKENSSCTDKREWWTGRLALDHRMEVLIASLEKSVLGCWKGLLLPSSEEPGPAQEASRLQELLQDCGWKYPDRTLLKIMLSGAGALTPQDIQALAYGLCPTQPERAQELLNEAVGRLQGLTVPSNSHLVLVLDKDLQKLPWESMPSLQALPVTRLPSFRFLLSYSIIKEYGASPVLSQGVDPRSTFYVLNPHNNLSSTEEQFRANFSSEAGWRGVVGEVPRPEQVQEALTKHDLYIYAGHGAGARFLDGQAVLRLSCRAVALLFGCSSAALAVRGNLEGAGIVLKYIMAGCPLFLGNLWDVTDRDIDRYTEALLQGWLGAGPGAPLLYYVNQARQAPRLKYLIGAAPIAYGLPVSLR

C[S+](C)[O-] [DMSO]
IC50 of DMSO on Separase assay: ~27%
